Measurements from patent publication US10329334B2 (SANOFI, priority 2015, dated 2019).
Starred links: 1 amine or outer side, 2 acyl side, 3 side chain; linkers in the order of their positions; H or OH if unused. Positions of bridges follow the written chain, without caps; N, C: chain ends. Non-standard residues stand in square brackets, D forms with d. Residues, ends and D or L forms follow the SMILES beside them. *: point of attachment. X1 = O=C([C@@H]1CCNc2c(N[*:1])cc3cc(O)c(O)cc3[n+]21)[*:2]; X4 = O=C([C@@H]1CCN=C2C(N[*:1])=Cc3cc(O)c(O)cc3N21)[*:2]; dOrn(N5-OH,N5-CHO) = N[C@H](CCCN(O)C=O)C(=O)O; Butanoyl(2-oxo,4-COOH) = O=C(O)CCC(=O)C(=O)*; X5 = O=CN(O)CCC[C@H](N[*:1])C(=O)[*:2]; d(aThr) = C[C@@H](O)[C@@H](N)C(=O)O; Suc = O=C(CCC(=O)[*:2])[*:1]; X2 = O=C1[C@@H](N*)CCCN1[O-]; Orn = NCCC[C@H](N)C(=O)O

Columns and labels:
Format in all cases: binding
[1] = molecular target: negative control lipocalin SEQ ID NO: 64 (Homo sapiens, UniProt P80188, C107S/Q48H); assay: SPR (Biacore T200), negative control SEQ ID NO: 64; settings: 1200 nM
Description: (§1) In a Surface Plasmon Resonance (SPR) based assay a Biacore T200 instrument (GE Healthcare) was used to measure the binding affinity of muteins to pyoverdine I succinyl, -succinamid, -α-ketoglutaryl with complexed iron ion or to pyoverdine II succinyl, -succinamid, -α-ketoglutaryl with complexed iron ion or to pyoverdine III succinyl, -succinamid, -α-ketoglutaryl with complexed iron ion. Muteins selected for binding to pyoverdines and negative control (SEQ ID NO: 64) were biotinylated for 2 h at room temperature applying an appropriate excess of EZ-Link NHS-PEG4-Biotin (Thermo, […]) followed by separation of non-reacted Biotin using a Zeba Spin Desalting Plate (Thermo, […]) according to the manufactures instructions.
(§2) In the SPR affinity assay, biotinylated muteins and negative control were captured on a sensor chip CAP using the Biotin CAPture Kit (GE Healthcare): Sensor Chip CAP is pre-immobilized with an ssDNA oligo. Undiluted Biotin CAPture Reagent (streptavidin conjugated with the complementary ss-DNA oligo) was applied at a flow rate of 2 μl/min for 300 s. Subsequently, 1 μg/ml to 100 μg/mL of biotinylated muteins or negative control were applied for 300 s at a flow rate of 5 μl/min. The reference channel was loaded with Biotin CAPture Reagent only.
Applying a flow rate of 30 μl/min, a single cycle or multi cycle kinetics approach was used with a sample contact time of 120-180 s and a dissociation time of 900-2400 s. […] After ligand immobilization, for analysis using single cycle kinetics all 4-5 concentrations of Pvd were applied consecutively in ascending order before the dissociation was monitored. For analysis using multi cycle kinetics 4 dilutions of Pvd were applied, each followed a dissociation phase. All measurements were performed at 25° C. […] Data were evaluated with Biacore T200 Evaluation software (V 1.0). Double referencing was used. A 1:1 Binding model was used to fit the raw data. […]

[2] = molecular target: T1, human lipocalin 2 (hNGAL) mutein SEQ ID NO: 32 (Homo sapiens, UniProt P80188, A60E/C107S/D97N/E64D/I61V/K145N/K154W/K93N/L123V/L56V/L90R/N116K/N85D/Q48H/Q69G/R101E/R92H/S147K/S88E/W99F/Y120N/Y126M/Y152G/Y72P); assay: SPR (Biacore T200), mutein SEQ ID NO: 32; settings: 25° C.
T1 construct: made in house; host or cells: E. coli
Description: (§4) In a Surface Plasmon Resonance (SPR) based assay a Biacore T200 instrument (GE Healthcare) was used to measure the binding affinity of muteins to pyoverdine I succinyl, -succinamid, -α-ketoglutaryl with complexed iron ion or to pyoverdine II succinyl, -succinamid, -α-ketoglutaryl with complexed iron ion or to pyoverdine III succinyl, -succinamid, -α-ketoglutaryl with complexed iron ion. Muteins selected for binding to pyoverdines and negative control (SEQ ID NO: 64) were biotinylated for 2 h at room temperature applying an appropriate excess of EZ-Link NHS-PEG4-Biotin (Thermo, Cat#21329) followed by separation of non-reacted Biotin using a Zeba Spin Desalting Plate (Thermo, Cat#21329) according to the manufactures instructions.

[3] = molecular target: T2, human lipocalin 2 (hNGAL) mutein SEQ ID NO: 33 (Homo sapiens, UniProt P80188, A60E/C107S/D97N/E64D/I61V/K145N/K154W/K93N/L123V/L56V/L90R/N116K/N85Q/Q48H/Q69G/R101E/R92H/S147K/S88E/W99F/Y120N/Y126M/Y152G/Y72P); assay: SPR (Biacore T200), mutein SEQ ID NO: 33; settings: 25° C.
T2 construct: made in house; host or cells: E. coli
Description: as §4

[4] = molecular target: T3, human lipocalin 2 (hNGAL) mutein SEQ ID NO: 35 (Homo sapiens, UniProt P80188, A60T/C107S/D97H/K145I/K154W/K93R/L123T/L56V/L90R/N85Q/Q48H/Q69G/R101D/R92I/S147R/S88D/T74A/W99Y/Y126Q/Y152I/Y72N); assay: SPR (Biacore T200), mutein SEQ ID NO: 35; settings: for specificity and crossreactivity (binding): 2 μM for all analytes
T3 construct: made in house; host or cells: E. coli
Description: as §4

[5] = molecular target: T4, human lipocalin 2 (hNGAL) mutein SEQ ID NO: 43 (Homo sapiens, UniProt P80188, A60L/C107S/D97K/I61A/K154W/K93Q/L123Q/L56E/L90R/N116L/Q48H/Q69M/R101V/S147V/S88E/W99D/Y120D/Y126E/Y72M); assay: SPR (Biacore T200), mutein SEQ ID NO: 43; settings: 25° C.
T4 construct: made in house; host or cells: E. coli
Description: as §1, §2
(§3) Applying a flow rate of 30 μl/min, a single cycle or multi cycle kinetics approach was used with a sample contact time of 120-180 s and a dissociation time of 900-2400 s. […] After ligand immobilization, for analysis using single cycle kinetics all 4-5 concentrations of Pvd were applied consecutively in ascending order before the dissociation was monitored. For analysis using multi cycle kinetics 4 dilutions of Pvd were applied, each followed a dissociation phase. All measurements were performed at 25° C. […] Data were evaluated with Biacore T200 Evaluation software (V 1.0). Double referencing was used. A 1:1 Binding model was used to fit the raw data.

[6] = molecular target: T5, human lipocalin 2 (hNGAL) mutein SEQ ID NO: 44 (Homo sapiens, UniProt P80188, A60L/C107S/D97K/I61T/K154W/K93R/L123Q/L56E/L90R/N116V/Q48H/Q69M/R101V/S147V/S88E/W99D/Y120D/Y126E/Y72M); assay: SPR (Biacore T200), mutein SEQ ID NO: 44; settings: 25° C.
T5 construct: made in house; host or cells: E. coli
Description: as §1, §2, §3

[7] = molecular target: T6, human lipocalin 2 (hNGAL) mutein SEQ ID NO: 45 (Homo sapiens, UniProt P80188, A60L/C107S/D97K/I61A/K154W/K93H/L123Q/L56E/L90R/N116L/Q48H/Q69M/R101V/S147V/S88E/W99D/Y120D/Y126E/Y72M); assay: SPR (Biacore T200), mutein SEQ ID NO: 45; settings: 25° C.
T6 construct: made in house; host or cells: E. coli
Description: as §1, §2, §3

[8] = molecular target: T7, human lipocalin 2 (hNGAL) mutein SEQ ID NO: 46 (G-N-I-K, positions 95-98, deleted) (Homo sapiens, UniProt P80188, A60L/C107S/D97Q/DEL115-118/I61A/K154W/K93Y/L123Q/L56E/L90R/Q48H/Q69K/R101V/S147V/S88E/W99D/Y120E/Y126E/Y152F/Y72M); assay: SPR (Biacore T200), mutein SEQ ID NO: 46; settings: 25° C.
T7 construct: made in house; host or cells: E. coli
Description: as §1, §2, §3

[9] = molecular target: T8, human lipocalin 2 (hNGAL) mutein SEQ ID NO: 47 (Homo sapiens, UniProt P80188, A60L/C107S/D97K/I61A/K154W/K93H/L123Q/L56E/L62R/L90R/N116L/Q48H/Q69M/R101V/S125P/S147V/S88E/W99D/Y120D/Y126E/Y72M); assay: SPR (Biacore T200), mutein SEQ ID NO: 47; settings: 25° C.
T8 construct: made in house; host or cells: E. coli
Description: as §1, §2, §3

[10] = molecular target: T9, human lipocalin 2 (hNGAL) mutein SEQ ID NO: 48 (Homo sapiens, UniProt P80188, A60L/C107S/D67N/D97K/I61A/K154W/K93H/L123Q/L56E/L90R/N116L/Q48H/Q69M/R101V/S125P/S147V/S88E/T165P/W99D/Y120D/Y126E/Y72M); assay: SPR (Biacore T200), mutein SEQ ID NO: 48; settings: 25° C.
T9 construct: made in house; host or cells: E. coli
Description: as §1, §2, §3

[11] = molecular target: T10, human lipocalin 2 (hNGAL) mutein SEQ ID NO: 49 (Homo sapiens, UniProt P80188, A60L/C107S/D65G/D97K/I61A/K154W/K66R/K93H/L123Q/L56E/L90R/N116L/Q48H/Q69M/R101V/S125P/S147V/S88E/W99D/Y120D/Y126E/Y72M); assay: SPR (Biacore T200), mutein SEQ ID NO: 49; settings: 25° C.
T10 construct: made in house; host or cells: E. coli
Description: as §1, §2, §3

T2 sequence (P80188 21-198 with the stated changes): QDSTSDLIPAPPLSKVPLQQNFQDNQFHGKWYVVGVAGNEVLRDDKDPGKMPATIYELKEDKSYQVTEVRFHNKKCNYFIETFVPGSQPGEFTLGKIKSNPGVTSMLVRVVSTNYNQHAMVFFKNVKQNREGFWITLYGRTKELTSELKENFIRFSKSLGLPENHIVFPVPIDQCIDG
T10 sequence (P80188 21-198 with the stated changes): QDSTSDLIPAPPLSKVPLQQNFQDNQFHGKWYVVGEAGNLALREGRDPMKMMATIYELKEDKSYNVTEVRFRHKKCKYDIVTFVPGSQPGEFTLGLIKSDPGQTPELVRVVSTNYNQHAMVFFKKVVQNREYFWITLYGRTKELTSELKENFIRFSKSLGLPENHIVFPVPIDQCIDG
T5 sequence (P80188 21-198 with the stated changes): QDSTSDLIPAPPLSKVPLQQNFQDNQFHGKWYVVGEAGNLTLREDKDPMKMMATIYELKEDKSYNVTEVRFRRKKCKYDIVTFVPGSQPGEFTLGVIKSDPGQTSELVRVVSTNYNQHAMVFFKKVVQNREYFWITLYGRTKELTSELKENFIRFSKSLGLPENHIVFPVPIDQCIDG
T3 sequence (P80188 21-198 with the stated changes): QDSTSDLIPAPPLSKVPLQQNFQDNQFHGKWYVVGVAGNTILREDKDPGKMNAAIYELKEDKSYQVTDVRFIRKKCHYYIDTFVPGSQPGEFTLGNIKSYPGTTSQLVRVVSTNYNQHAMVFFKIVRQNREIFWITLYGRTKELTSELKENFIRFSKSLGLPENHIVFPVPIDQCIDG
T8 sequence (P80188 21-198 with the stated changes): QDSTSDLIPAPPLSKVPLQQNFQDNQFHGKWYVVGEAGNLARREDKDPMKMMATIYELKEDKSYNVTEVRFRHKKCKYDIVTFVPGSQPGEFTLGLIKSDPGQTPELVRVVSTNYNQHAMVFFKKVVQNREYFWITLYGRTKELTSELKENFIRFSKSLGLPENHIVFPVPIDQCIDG
T4 sequence (P80188 21-198 with the stated changes): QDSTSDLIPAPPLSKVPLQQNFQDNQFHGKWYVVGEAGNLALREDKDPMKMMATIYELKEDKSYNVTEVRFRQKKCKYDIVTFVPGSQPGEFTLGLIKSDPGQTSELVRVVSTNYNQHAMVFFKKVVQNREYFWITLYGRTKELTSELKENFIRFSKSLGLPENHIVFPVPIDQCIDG
T6 sequence (P80188 21-198 with the stated changes): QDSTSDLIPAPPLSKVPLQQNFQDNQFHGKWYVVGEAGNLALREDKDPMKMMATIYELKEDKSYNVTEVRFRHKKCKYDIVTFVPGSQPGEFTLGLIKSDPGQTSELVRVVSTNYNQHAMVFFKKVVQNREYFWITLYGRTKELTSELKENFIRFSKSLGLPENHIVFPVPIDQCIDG
T9 sequence (P80188 21-198 with the stated changes): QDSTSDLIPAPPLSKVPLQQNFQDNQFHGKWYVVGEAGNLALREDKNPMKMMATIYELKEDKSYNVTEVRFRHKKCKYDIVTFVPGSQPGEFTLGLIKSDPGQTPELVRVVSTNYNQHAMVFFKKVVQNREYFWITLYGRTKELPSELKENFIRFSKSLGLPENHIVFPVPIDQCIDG
T7 sequence (P80188 with tags, fused parts or gaps with the stated changes): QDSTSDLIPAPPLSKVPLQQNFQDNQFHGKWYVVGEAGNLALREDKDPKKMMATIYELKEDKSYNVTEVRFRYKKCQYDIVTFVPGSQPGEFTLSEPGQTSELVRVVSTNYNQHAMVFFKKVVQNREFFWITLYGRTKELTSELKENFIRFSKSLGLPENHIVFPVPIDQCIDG
T1 sequence (P80188 21-198 with the stated changes): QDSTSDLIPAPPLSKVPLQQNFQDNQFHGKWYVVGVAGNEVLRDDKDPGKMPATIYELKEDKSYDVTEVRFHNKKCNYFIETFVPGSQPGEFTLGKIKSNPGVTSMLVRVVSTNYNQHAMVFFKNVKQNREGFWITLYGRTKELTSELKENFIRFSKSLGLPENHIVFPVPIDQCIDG
negative control lipocalin SEQ ID NO: 64, sequence (P80188 21-198 Q48H/C107S): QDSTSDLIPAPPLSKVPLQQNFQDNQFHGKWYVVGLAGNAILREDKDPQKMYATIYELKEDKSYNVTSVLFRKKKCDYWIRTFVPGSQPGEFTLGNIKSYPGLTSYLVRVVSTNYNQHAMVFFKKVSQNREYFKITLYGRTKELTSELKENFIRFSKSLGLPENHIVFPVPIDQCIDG

C[C@@H](O)[C@@H](NC(=O)CNC(=O)[C@H](CCCN)NC(=O)[C@@H](CCCN([O-])C=O)NC(=O)[C@@H](CO)NC(=O)[C@@H]1CCNc2c(NC(=O)CCC(=O)O)cc3cc([O-])c([O-])cc3[n+]21)C(=O)N[C@@H](CO)C(=O)N[C@H]1CCCN([O-])C1=O.[Fe+3] [Pvd II s (+Fe)] (Suc-[X1][dS][dOrn(N5-OH,N5-CHO)][Orn]G[d(aThr)]S-X2)
absence of binding to negative control [1]: absence of binding

C[C@@H](O)[C@@H](NC(=O)CNC(=O)[C@H](CCCN)NC(=O)[C@@H](CCCN([O-])C=O)NC(=O)[C@@H](CO)NC(=O)[C@@H]1CCNc2c(NC(=O)C(=O)CCC(=O)O)cc3cc([O-])c([O-])cc3[n+]21)C(=O)N[C@@H](CO)C(=O)N[C@H]1CCCN([O-])C1=O.[Fe+3] [Pvd II aKG (+Fe)] ({Butanoyl(2-oxo,4-COOH)}-[X1][dS][dOrn(N5-OH,N5-CHO)][Orn]G[d(aThr)]S-X2)
Kd [2]: 3.44 nM | koff [2]: 0.000374 s⁻¹ | kon [2]: 109000 M⁻¹ s⁻¹ | Kd [3]: 4.19 nM | koff [3]: 0.000416 s⁻¹ | kon [3]: 99300 M⁻¹ s⁻¹ | Kd ([4]; 25° C.): 3.42 nM | koff ([4]; 25° C.): 0.000149 s⁻¹ | kon ([4]; 25° C.): 43500 M⁻¹ s⁻¹

CC(=O)N(O)CCCCCNC(=O)CCC(=O)N(O)CCCCCNC(=O)CCC(=O)N(O)CCCCCN [Desferoxamin, desferoxamine, reference compound]
specificity and crossreactivity (binding) [4]: absence of binding

CN1[C@@H]([C@H]2CSC(c3ccccc3O)=N2)SC[C@H]1C(=O)O [Pyochelin, pyochelin]
specificity and crossreactivity (binding) [4]: absence of binding

NC(=O)CC[C@H](NC(=O)[C@H](CCCN([O-])C=O)NC(=O)[C@@H]1CCN=C([C@@H](CO)NC(=O)[C@@H]2CCNc3c(NC(=O)C(=O)CCC(=O)O)cc4cc([O-])c([O-])cc4[n+]32)N1)C(=O)N[C@H](CCC(N)=O)C(=O)N[C@H](CCCN([O-])C=O)C(=O)NCC(=O)O.[Fe+3] [Pvd III aKG (+Fe)]
Kd [5]: 5.29 nM | koff [5]: 0.000303 s⁻¹ | kon [5]: 57300 M⁻¹ s⁻¹ | Kd [6]: 5.64 nM | koff [6]: 0.000271 s⁻¹ | kon [6]: 48200 M⁻¹ s⁻¹ | Kd [7]: 6.99 nM | koff [7]: 0.00033 s⁻¹ | kon [7]: 47300 M⁻¹ s⁻¹ | Kd [8]: 3.15 nM | koff [8]: 0.000241 s⁻¹ | kon [8]: 76700 M⁻¹ s⁻¹ | Kd [9]: 8.97 nM | koff [9]: 0.000262 s⁻¹ | kon [9]: 29200 M⁻¹ s⁻¹ | Kd [10]: 5.81 nM | koff [10]: 0.000158 s⁻¹ | kon [10]: 27200 M⁻¹ s⁻¹ | Kd [11]: 1.53 nM | koff [11]: 4.29e-05 s⁻¹ | kon [11]: 28100 M⁻¹ s⁻¹

C[C@@H](O)[C@@H]1NC(=O)[C@H](CCCN(O)C=O)NC(=O)[C@@H](NC(=O)[C@H](CCCN(O)C=O)NC(=O)[C@@H](CO)NC(=O)[C@H](CCCNC(=N)N)NC(=O)[C@@H](CO)NC(=O)[C@@H]2CCN=C3C(NC(=O)CCC(=O)O)=Cc4cc(O)c(O)cc4N32)CCCCNC(=O)[C@H]([C@@H](C)O)NC1=O.[Fe+3] [Pvd I s (+Fe)] (Suc-[X4][dS]R[dS][X5]K[X5]TT; lactam 6-C)
absence of binding to negative control [1]: absence of binding

NC(=O)CCC(=O)Nc1cc2cc([O-])c([O-])cc2[n+]2c1NCC[C@H]2C(=O)N[C@H](CO)C1=NCC[C@@H](C(=O)N[C@@H](CCCN([O-])C=O)C(=O)N[C@@H](CCC(N)=O)C(=O)N[C@H](CCC(N)=O)C(=O)N[C@H](CCCN([O-])C=O)C(=O)NCC(=O)O)N1.[Fe+3] [Pvd III sa (+Fe)]
Kd [5]: 3.04 nM | koff [5]: 0.000107 s⁻¹ | kon [5]: 35200 M⁻¹ s⁻¹ | Kd [6]: 2.94 nM | koff [6]: 8.9e-05 s⁻¹ | kon [6]: 30300 M⁻¹ s⁻¹ | Kd [7]: 3.03 nM | koff [7]: 9.91e-05 s⁻¹ | kon [7]: 32700 M⁻¹ s⁻¹ | Kd [8]: 1.58 nM | koff [8]: 6.9e-05 s⁻¹ | kon [8]: 43600 M⁻¹ s⁻¹ | Kd [9]: 0.2 nM | koff [9]: 2.52e-05 s⁻¹ | kon [9]: 128000 M⁻¹ s⁻¹ | Kd [10]: 0.64 nM | koff [10]: 9.51e-05 s⁻¹ | kon [10]: 148000 M⁻¹ s⁻¹ | Kd [11]: 0.84 nM | koff [11]: 0.000112 s⁻¹ | kon [11]: 134000 M⁻¹ s⁻¹
